Where no end group is shown, it is not given here.

The source of these data is patent publication US12188947B2, “Marker for diagnosing atherosclerosis severity, and diagnostic method using same” (EWHA UNIVERSITY—INDUSTRY COLLABORATION FOUNDATION, priority 2018, dated 2025).

The data set is described as follows: Metabolic phenotype (body weight, metabolic organ weights) after LGI3 antagonist peptide injection. The data set is classed as in vivo, mouse. The procedure: LGI3 P34, made with a mouse LGI3 antagonist peptide, is a 15mer synthetic peptide containing amino acids (aa) […] (DEGRQKFVRFQELAV (SEQ ID NO:3)) of mouse Lgi3. The synthetic LGI3 peptide was dissolved in PBS and sterilized by filtration. PBS injection was used as a control for mouse experiments. All peptides were synthesized by Peptron (Seoul, Korea). Apoe^−/− mice fed a high fat diet for 16 weeks were intraperitoneally injected with PBS or the LGI3 antagonist peptide twice a week for the last 5 weeks.
Statistical analysis was performed using InStat. A two-sided Mann-Whitney U-test was used for comparison between two groups, and one-way ANOVA was used for comparisons among three or more groups. All data is presented as mean s.e.m, and P-values of ≤0.05 were considered statistically significant.

“DEGRQKFVRFQELAV [LGI3 P34, DEGRQKFVRFQELAV]” yielded an epididymal fat weight (Apoe −/− mice, high fat diet 16 weeks, intraperitoneal injection for the last 5 weeks, n=9, PBS control 1.689±0.43, P=0.84) of 1.58±0.51%. This sequence showed a body weight (Apoe −/− mice, high fat diet 16 weeks, intraperitoneal injection for the last 5 weeks, n=9, PBS control 39.22±3.51, P=0.536) of 38.08 ± 2.19 g. Moreover, the “metabolic phenotype (in words)” value (body weight, WAT, spleen and liver weight to body weight versus control mice, FIG. 6) is “not changed”.
